Assay results as given in patent US20030036524A1, “Method of sensitising endothelial cells to prodrugs” (priority 2000, published 2003).

System: HUVEC cells
Assay: Functional bio-assay: endothelial cell proliferation of Ad5C2B1-infected HUVEC cells treated with ifosfamide, crystal-violet cell number
Assay type: cell-based, human
Conditions: day 8
Procedure: To test the bioactivity of the CYP2B1 transgene, human umbilical vein […] (HUVEC) cells [Jaffe et al.; J. Clin. Invest.
HUVEC cells were infected with Ad5C2B1 on day 2 with concentrations ranging from 0 to 2×10^8 PFU/ml for 2 hours.
The cells were seeded at 40.000 cells/well at day 3 (some wells were not sub-cultured but saved for cell extracts and medium collection at day 4).
HUVEC cells were grown on gelatin-coated tissue culture dishes in medium 199 (Biowhitakker), supplemented with 10% (vol/vol) human serum, 10% (v/v) heat-inactivated newborn calf serum (Biowhitakker), 5 U/mL of heparin (Leo Pharma BV), […] of crude EC growth factor (TNO-PG, Leiden), 100 U/mL of penicillin, and […] of streptomycin (Biowhitakker). Cells were grown at 37° C. in a humid atmosphere with 5% (vol/vol) CO2.
Cell numbers were determined at day 8 using crystal-violet staining and optical density measurement.
To quantify the effect off viral infection and prodrug treatment the cells numbers were determined as described above.

O=P1(NCCCl)OCCCN1CCCl (stereo not drawn) [Ifosfamide, ifosfamide]
Number of Cells (Virus 0 PFU/ml, Ifosfamide 0.0625 mM): 152000
Number of Cells (Virus 0 PFU/ml, Ifosfamide 0.125 mM): 151600
Number of Cells (Virus 0 PFU/ml, Ifosfamide 0.25 mM): 152500
Number of Cells (Virus 0 PFU/ml, Ifosfamide 0.50 mM): 116000
Number of Cells (Virus 1 × 10^8 PFU/ml, Ifosfamide 0.0625 mM): 80500
Number of Cells (Virus 1 × 10^8 PFU/ml, Ifosfamide 0.125 mM): 63600
Number of Cells (Virus 1 × 10^8 PFU/ml, Ifosfamide 0.25 mM): 66000
Number of Cells (Virus 1 × 10^8 PFU/ml, Ifosfamide 0.50 mM): 38500
Number of Cells (Virus 1.25 × 10^7 PFU/ml, Ifosfamide 0.0625 mM): 98000
Number of Cells (Virus 1.25 × 10^7 PFU/ml, Ifosfamide 0.125 mM): 110000
Number of Cells (Virus 1.25 × 10^7 PFU/ml, Ifosfamide 0.25 mM): 102000
Number of Cells (Virus 1.25 × 10^7 PFU/ml, Ifosfamide 0.50 mM): 85000
Number of Cells (Virus 2 × 10^8 PFU/ml, Ifosfamide 0.0625 mM): 60000
Number of Cells (Virus 2 × 10^8 PFU/ml, Ifosfamide 0.125 mM): 54000
Number of Cells (Virus 2 × 10^8 PFU/ml, Ifosfamide 0.25 mM): 53000
Number of Cells (Virus 2 × 10^8 PFU/ml, Ifosfamide 0.50 mM): 30000
Number of Cells (Virus 2.5 × 10^7 PFU/ml, Ifosfamide 0.0625 mM): 88000
Number of Cells (Virus 2.5 × 10^7 PFU/ml, Ifosfamide 0.125 mM): 85000
Number of Cells (Virus 2.5 × 10^7 PFU/ml, Ifosfamide 0.25 mM): 79200
Number of Cells (Virus 2.5 × 10^7 PFU/ml, Ifosfamide 0.50 mM): 56000
Number of Cells (Virus 5 × 10^7 PFU/ml, Ifosfamide 0.0625 mM): 87000
Number of Cells (Virus 5 × 10^7 PFU/ml, Ifosfamide 0.125 mM): 85000
Number of Cells (Virus 5 × 10^7 PFU/ml, Ifosfamide 0.25 mM): 75000
Number of Cells (Virus 5 × 10^7 PFU/ml, Ifosfamide 0.50 mM): 55000
